{
  "source": "patent US20100112083A1",
  "about": "“PHARMACEUTICAL PRODUCT FOR MODULATING BONE FORMATION, PROCESS FOR MODULATING BONE FORMATION” (priority 2007, published 2010)",
  "origin": "cited, not measured here",
  "system": "mesenchymal stem cells",
  "settings": "by activating sirtuin protein Sirt1",
  "data": [
    {"smiles": "Oc1ccc(/C=C/c2cc(O)cc(O)c2)cc1", "note": "[trans-resveratrol]", "values": [
      {"measurement": "differentiation of mesenchymal stem cells into osteoblasts", "value": "promoted the selective differentiation"}
    ]}
  ]
}
